Entries after “also recorded” stand apart in the source; their conditions may differ.
How the values were obtained:
[1] = test system: retinal neovascularization; test: Oxygen-induced retinopathy in newborn mice; format: in vivo, mouse
[2] = test system: bovine REC; test: Secondary sprouting assay on reconstituted basement membrane matrix (MTS); format: cell-based
Method: (§1) In vitro MATRIGEL™ biological cell culture substrate assay of capillary-like tube formation and secondary sprouting. […] Briefly, 50 μL of reconstituted basement membrane matrix from mouse EHS tumor (BD or GFR MATRIGEL™ biological cell culture substrate; Becton Dickinson Labware, Bedford, Mass.) were dispensed with frozen pipettes into each well of a previously frozen, sterile 96-well plate sitting on wet ice and allowed to solidify for 1 hr at room temperature or 37° C. Approximately 5×10^4 or 7.5×10^4 REC in a 100 μL volume were seeded into each triplicate well. Human recombinant or purified growth factors were added to a final concentration of 10 ng/mL (or as noted) in 0.5% FCS incomplete BREC medium. Capillary-like tube structures formed by REC on reconstituted basement membrane matrix were photographed at various intervals ranging from 12–72 hr; pictures were scanned, digitized and analyzed using image-processing software.
For the secondary sprouting assay, cells on reconstituted basement membrane matrix were seeded as above but incubated in 0.5% FCS incomplete BREC medium without any growth factors for 3 days, allowing for tube formation and collapse. On day 3, human recombinant or purified growth factors were added to a final concentration of 10 ng/mL (or as noted) in low-serum incomplete BREC medium and incubated for another 5–6 days. Digital photographs were obtained with a Kodak MDS 100 camera attached to a Leitz DM IL inverted microscope. Digitized images obtained with a Kodak MDS 100 video camera were stored on compact discs and quantified with NIH Image 1.62 software. The number of living cells in the sprouting colonies were determined using the MTS cell proliferation assay.
A good correlation was observed between the spherical volume and the number of live cells in secondary sprouting colonies (not shown). Since the latter is an easy parameter to test by using the MTS assay, it was adopted as a faster method for studying the effect of various agents on secondary sprouting.

[3] = test system: REC; test: Capillary-like tube formation on MATRIGEL; format: cell-based, bovine
Method: as §1

[4] = test system: bovine REC; test: REC proliferation assay (MTS); format: cell-based
Method: REC proliferation and survival assays. 96-well plates were coated with various amounts of TN-C or vehicle. 5×10^3 cells were added to each triplicate well in low-serum REC medium with various amounts of growth factors (0.5% FCS incomplete BREC medium containing 10 ng/ml of human IGF-I, FGF-2, VEGF, PlGF and PDGF-BB [R&D Systems Inc., Minneapolis, Minn.]). Cell numbers were determined on days 4–7 using the MTS cell proliferation assay (Promega Corp.) according to manufacturer's instructions. Survival was measured in the same way using high glucose (30 mM) or chemical hypoxia (2 mM sodium azide) or serum-free medium to induce cell death. Cell numbers were determined on days 4–7 using MTS assay (Promega).

[5] = test system: bovine REC; test: Migration (wound healing) assay; format: cell-based
Method: Migration assay. REC migration rates were examined in a wound healing assay, where cells migrate over time into the scrape wound in a monolayer. Briefly, cells were seeded in 24-well plates and allowed to reach confluence in growth medium. Prior to growth factor treatment, cells were serum-starved overnight in incomplete BREC medium with 0.5% FCS. All monolayers within an experiment were wounded with a single sterile wood stick of constant diameter, to ensure uniformity in the wound areas among different treatments. Wounded monolayers were then rinsed with low-serum medium to remove detached cells and treated with various combinations of human growth factors at 10 ng/mL each. On day 7, cells were rinsed 3× with PBS and fixed with methanol for 15 min, rehydrated with dH2O and stained with Meyer's hematoxylin for 5 min, followed by destaining with dH2O. All wells were photographed with a 4× or 10× objective using a Kodak MDS 100 digital camera attached to a Leitz DM IL inverted microscope. The original wound area was measured at 0 hr and used as a baseline for comparison to the treated wells at the conclusion of the experiment. The number of cells migrated into the wound was determined. Migrating cell counting was automated using the AAB (Advanced American Biotechnology, Fullerton, Calif.) software. Data were calculated and statistically analyzed (Spirin K S et al., Basement membrane and growth factor gene expression in normal and diabetic human retinas, Curr. Eye Res. 18:490–499 [1999]) relative to control cultures that received the same concentrations of bovine serum albumin instead of growth factors and/or inhibitor, compared to vehicle instead of inhibitor after wounding. Inhibitors were added 30 min before growth factors.

[6] = Solubility of emodin in injection vehicle; format: physicochemical; conditions: phosphate-buffered saline with 20% PEG 400 + 2% Tween-80, pH 7.2
Method: A minimum of 5 mouse pups were used per group. Emodin at 20–30 μg/g of body mass (or 10 μl/g) was prepared as a solution (70% ethanol) or suspension (PEG-Tween) in vehicle. Vehicle (“emodin solvent”) was 70% ethanol in initial experiments. In three later experiments, phosphate-buffered saline with 20% polyethylene glycol 400 (PEG 400)+2% Tween-80, pH 7.2, was used as vehicle.

[7] = test system: secondary sprouting colonies; test: Marker expression in secondary sprouting colonies (RT-PCR, immunofluorescence); format: cell-based; conditions: treatment of secondary sprouting colonies
Method: Detection of markers expressed by cells selected from secondary sprouting colonies was carried out using reverse-transcriptase polymerase chain reaction (RT-PCR) with RNA derived from secondary sprouting cells, which was compared to RNA derived from non-sprouting cells. The RT-PCR method allows the detection of low-levels of message coding for the above-mentioned markers. Following manufacturer's instructions, RNA isolation was done with a QiaShredder kit (Qiagen) on isolated sprouts (scooped out of MATRIGEL™ biological cell culture substrate) followed by use of the RNAeasy kit (Qiagen), and the RT-reaction was conducted using a SMART cDNA kit (Clontech) and the RT-PCR protocol, as described in Hamdi et al., Biochem Biophys Res Commun. 295(3):668–72 [Jul. 19, 2002] but using approx. 50 ng of cDNA instead of genomic DNA per PCR reaction. The following primers were used: […]

[8] = test system: telomerase; test: Telomerase assay (TRAP) in cultured endothelial cells; format: cell-based
Description: Cells in secondary sprouting colonies contained high telomerase activity (FIG. 10, 3rd column) when compared to the parental cells (1st column), as measured by telomerase assay (TRAP; Yang, J., et al., Stem and germline cells are among the only cells in postnatal tissues that continue to express telomerase activity, J. Biol. Chem. 274(37):26141–26148 [1999]; Hsiao, R. et al., Mature endothelial cells express very low levels of telomerase and it's lost during the first five divisions in vitro, Anticancer Res 17:827–832 [1997]; Kolquist, K A et al., Nature Genet 19:182–186 [1998] as reviewed by Chang E et al. J. Invest. Dermatol. 118:752–8. [2002]). This enzyme activity is either very low or absent in aging or differentiated cells, but it is high in precursors. (Armstrong et al., mTert expression correlates with telomerase activity during the differentiation of murine embryonic stem cells. Mech Dev. 2000. 97(1–2):109–116). Telomerase activity is also high in invasive and highly proliferative cancers but not in normal adult cells. (Blasco et al., Telomeres and telomerase. Genes & Development. 1999. 13:2353–2359).

[9] = basal and growth factor-stimulated (CK2 blockers), H-7 preliminary, not shown

Compound: Cc1cc(O)c2c(c1)C(=O)c1cc(O)cc(O)c1C2=O [emodin, 3-methyl-1,6,8-trihydroxyanthraquinone]
- neovascular tufts in fluorescein angiograms vs vehicle control ([1]; intraperitoneal): much less pronounced
- retinal vascularization in fluorescein angiograms vs vehicle control ([1]; intraperitoneal): significantly less vascularization
- diminution of retinal neovascularization (preretinal nuclei count) ([1]; two intraperitoneal injections daily, day 11 to 17 after birth, emodin 20–30 μg/g, vs untreated or vehicle): 70–75%
- effect of kinase inhibitors on secondary sprouting [2, 9]: potently inhibited
- effect of kinase inhibitors on tube formation [3, 9]: potently inhibited
- effect of kinase inhibitors on proliferation [4, 9]: potently inhibited
- effect of kinase inhibitors on migration [5, 9]: potently inhibited
- effect on growth factor-mediated cell migration ([5]; four GFs 10 ng/ml each, 7 days, 0.5% serum, emodin 10 μM, DRB 15 μM): significant inhibitory effect
- solubility in vehicle [6]: did not ensure emodin solubility

Compound: PDGF-BB: platelet derived growth factor (PDGF)-BB, human recombinant or purified angiogenic growth factor
- expression of AC133, CD166, AML-1, uPA, tPA [7]: increased the expression
- morphology of sprouting colonies after growth factor treatment ([2]; 10 ng/mL): shorter and thicker sprouts
- effect of growth factors on secondary sprouting (live cell number) ([2]; 10 ng/mL, 0.5% FCS medium): potently stimulated; also recorded: most potent single growth factor; also recorded: potent stimulator; also recorded: dramatic increase; also recorded: greatly enhanced; also recorded: the most potent
- additivity of effect on secondary sprouting with individual growth factors ([2]; PDGF-BB 1 ng/mL ± VEGF, IGF-I, PlGF or FGF-2 10 ng/mL, added day 3): not additive or synergistic; also recorded: not additive
- effect on secondary sprouting when added after tube collapse ([2]; growth factor added after the tubes had collapsed (day 3)): again increased secondary sprouting
- stimulation of secondary sprouting (fold, on average) ([2]; growth factors, live cells by MTS): three-fold
- additivity of effect on secondary sprouting with combinations of three growth factors ([2]; three growth factors 10 ng/mL each plus fourth factor 0–100 ng/mL, added day 3): potentiated their responses; also recorded: additive
- effect of growth factors on tube formation ([3]; growth factors 10 ng/mL each): pro-collapsing factor
- effect of growth factors on REC proliferation ([4]; growth factors 10 ng/mL each): potent stimulator
- effect of growth factors on REC migration ([5]; growth factors 10 ng/mL each): potent stimulator
- telomerase activity of differentiated endothelial cells ([8]; differentiative culture conditions (plastic, no MATRIGEL)): opposite effect
- telomerase activity of sprouting colonies ([8]; expansive culture conditions (MATRIGEL, low serum medium)): increases the activity of telomerase

Reference: US7101707B2, “Secondary sprouting for isolation and expansion of endothelial sprout cells and endothelial precursor cells from a mixed population and for screening substances” (Cedars-Sinai Medical Center, priority 2002, dated 2006)
